Source: publication PMC6278539, “Selective Inhibition of Human AKR1B10 by n-Humulone, Adhumulone and Cohumulone Isolated from Humulus lupulus Extract” (Molecules, 2018)

Assays:
[1] = molecular target: T1, AKR1B10 (Homo sapiens, UniProt O60218); assay: AKR1B10 inhibition, DL-glyceraldehyde reduction (NADPH decrease at 340 nm); assay type: biochemical; settings: for IC50 / Ki: AKR1B10, Glyceraldehyde [4.0 mM], mean ± SD; for Ki: read-out: Ki (Morrison); for Ratio AKR1A1/AKR1B10 / Ratio AKR1B1/AKR1B10: IC50-ratio, glyceraldehyde as substrate
T1 construct: 6xHis; made in house; host or cells: E. coli BL21 (DE3)
T1 sequence (O60218 whole entry): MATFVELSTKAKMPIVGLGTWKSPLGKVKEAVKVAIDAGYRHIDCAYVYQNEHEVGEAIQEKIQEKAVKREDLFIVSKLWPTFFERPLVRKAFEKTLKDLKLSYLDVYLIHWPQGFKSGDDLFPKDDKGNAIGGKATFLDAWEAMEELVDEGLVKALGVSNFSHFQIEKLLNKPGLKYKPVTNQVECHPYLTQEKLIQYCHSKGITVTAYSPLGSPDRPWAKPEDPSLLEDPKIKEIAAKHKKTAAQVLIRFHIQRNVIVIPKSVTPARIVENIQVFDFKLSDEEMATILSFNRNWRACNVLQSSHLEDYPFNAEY
Method: (§1) The carbonyl-reducing enzymes AKR1A1, AKR1B1, AKR1B10 were prepared in an Escherichia coli expression system according to previously published methods: plasmids of AKR1A1 and AKR1B1 were friendly gifts from Prof. Dr. Vladimir Wsol and Dr. Nina Kassner; information about production and purification of AKR1B10 [19] has been published before (sequences of all obtained plasmids containing the specific inserts were verified by sequencing (MWG Eurofins)). The plasmids were then transformed in E. coli BL21 (DE3) cells. For overexpression of 6× His-tagged enzymes, a 400 mL culture (containing the appropriate antibiotic; plasmid dependent) was grown to optical density of 0.6 at 600 nm at 37 °C. Expression was induced by adding isopropyl-1-thio-galactopyranoside to the culture medium (final concentration of 1 mM). After 3 h, cells were harvested by centrifugation (6000× g, 15 min) and resuspended in 20 mL PBS-I buffer (20 mM Na2H2PO4, 500 mM NaCl, 10 mM imidazole, 10% v/v glycerol, pH 7.4). Cell disruption was performed by ultrasonication with cooling on ice to avoid heating. The sample was subsequently centrifuged at 100,000× g at 4 °C for 1 h. The obtained supernatants containing the respective enzymes were purified using Ni-affinity chromatography (ÄKTA-Purifier; Amersham Pharmacia, Uppsala, Sweden) using PBS-II buffer (20 mM Na2H2PO4, 500 mM NaCl, 500 mM imidazole, 10% v/v glycerol, pH 7.4). Purification progress was monitored by SDS-PAGE of the obtained fractions (not shown). Enzyme concentrations were determined using a Qubit 2.0 fluorometric quantitation system (Life Technologies, Carlsbad, CA, USA) according to the manufacturer’s instructions.
(§2) Catalytic properties were determined by measuring the decrease in absorbance at 340 nm (Cary 100 scan photometer, Varian, CA, USA). A reaction mixture without inhibitor consisted of different concentrations of DL-glyceraldehyde or farnesal, 200 μM NADPH, 0.1 M NaH2PO4 buffer (pH 7.4) and an appropriate amount of enzyme in a total assay volume of 0.8 mL. Final enzyme concentrations in the assay ranged from 222 nM (AKR1A1) to 899 nM (AKR1B10). KM values were obtained by fitting the kinetic data (mean ± SD from at least three experiments) to the Michaelis‒Menten model, as implemented in GraphPad Prism6 (GraphPad Software Inc., La Jolla, CA, USA).
(§3) For inhibition studies, stock solutions of inhibitors were prepared in H2O (iso-α-acid mixture) and DMSO (α-acid mixture and compounds 1–3 purified from the same mixture). […] When collecting data for dose–response curves initial velocities of DL-glyceraldehyde or farnesal reduction (substrate concentration at KM) in the presence of inhibitors were assayed as described above. The percentage of inhibition was calculated considering the activity in the absence of inhibitor to be 100%.
Initially, the half maximal inhibitory concentrations (IC50 values) were determined for each inhibitor in presence of each enzyme, using the shared substrate DL-glyceraldehyde (set to their specific KM; 3.6 mM, 50 μM and 4 mM for AKR1A1, AKR1B1 and AKR1B10, respectively) to assess specificity amongst the structurally similar members of the AKR-superfamily.
For IC50 determination, experimental data were normalised and fitted to a sigmoidal curve as implemented in GraphPad Prism6 (GraphPad Software Inc., La Jolla, CA, USA). Whenever tight-binding inhibition was observed, the inhibition constant Ki was determined by fitting inhibition data to the Morrison equation [43]. In order to verify the inhibitory potency, farnesal as an enzyme-specific physiological substrate for AKR1B10 (farnesal; KM = 5 µM) was used to determine inhibition parameters. Enzyme inhibition parameters were assayed as described above. The inhibition mechanism of each compound for AKR1B10 was analysed by plotting IC50-values at different substrate concentrations (at least five inhibitor and substrate concentrations). […]

[2] = molecular target: T1, AKR1B10; assay: AKR1B10-mediated farnesal reduction inhibition; assay type: biochemical; settings: for IC50 / Ki: AKR1B10, Farnesal [5 µM], mean ± SD; for Mode of inhibition: AKR1B10, farnesal reduction
Method: as §1, §2, §3
For IC50 determination, experimental data were normalised and fitted to a sigmoidal curve as implemented in GraphPad Prism6 (GraphPad Software Inc., La Jolla, CA, USA). Whenever tight-binding inhibition was observed, the inhibition constant Ki was determined by fitting inhibition data to the Morrison equation [43]. In order to verify the inhibitory potency, farnesal as an enzyme-specific physiological substrate for AKR1B10 (farnesal; KM = 5 µM) was used to determine inhibition parameters. Enzyme inhibition parameters were assayed as described above. The inhibition mechanism of each compound for AKR1B10 was analysed by plotting IC50-values at different substrate concentrations (at least five inhibitor and substrate concentrations). All data obtained were plotted and analysed using GraphPad Prism6 (GraphPad Software Inc., La Jolla, CA, USA).

[3] = molecular target: T2, AKR1B1 (Homo sapiens, UniProt P15121); assay: AKR1B1 inhibition, DL-glyceraldehyde reduction (NADPH decrease at 340 nm); assay type: biochemical; settings: AKR1B1, Glyceraldehyde [50 µM]
T2 construct: 6xHis; made in house; host or cells: E. coli BL21 (DE3)
Method: as §1, with “The sample was subsequently centrifuged at 100,000× g at 4 °C for 1 h. The obtained supernatants containing the respective enzymes were purified using Ni-affinity chromatography (ÄKTA-Purifier; Amersham Pharmacia, Uppsala, Sweden) using PBS-II buffer (20 mM Na2H2PO4, 500 mM NaCl, 500 mM imidazole, 10% v/v glycerol, pH 7.4).” left out
(§4) Catalytic properties were determined by measuring the decrease in absorbance at 340 nm (Cary 100 scan photometer, Varian, CA, USA). […]
(§5) For inhibition studies, stock solutions of inhibitors were prepared in H2O (iso-α-acid mixture) and DMSO (α-acid mixture and compounds 1–3 purified from the same mixture). […] The percentage of inhibition was calculated considering the activity in the absence of inhibitor to be 100%. […]
For IC50 determination, experimental data were normalised and fitted to a sigmoidal curve as implemented in GraphPad Prism6 (GraphPad Software Inc., La Jolla, CA, USA). Whenever tight-binding inhibition was observed, the inhibition constant Ki was determined by fitting inhibition data to the Morrison equation [43]. […]

[4] = system: AKR1B10; design: method as in PMID 23123477; settings: cited from earlier work
[5] = molecular target: T3, AKR1A1 (Homo sapiens, UniProt P14550); assay: AKR1A1 inhibition, DL-glyceraldehyde reduction (NADPH decrease at 340 nm); assay type: biochemical; settings: AKR1A1, Glyceraldehyde [3.6 mM]
T3 construct: 6xHis; made in house; host or cells: E. coli BL21 (DE3)
T3 sequence (P14550 1-325): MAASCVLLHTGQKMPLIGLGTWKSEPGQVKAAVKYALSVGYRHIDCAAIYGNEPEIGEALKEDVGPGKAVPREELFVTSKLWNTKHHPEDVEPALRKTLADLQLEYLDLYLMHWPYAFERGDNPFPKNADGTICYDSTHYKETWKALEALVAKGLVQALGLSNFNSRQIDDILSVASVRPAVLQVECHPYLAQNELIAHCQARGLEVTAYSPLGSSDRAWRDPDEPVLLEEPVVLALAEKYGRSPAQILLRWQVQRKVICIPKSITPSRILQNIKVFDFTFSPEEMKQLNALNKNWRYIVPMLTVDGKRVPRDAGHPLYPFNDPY
Method: The carbonyl-reducing enzymes AKR1A1, AKR1B1, AKR1B10 were prepared in an Escherichia coli expression system according to previously published methods: plasmids of AKR1A1 and AKR1B1 were friendly gifts from Prof. Dr. Vladimir Wsol and Dr. Nina Kassner; information about production and purification of AKR1B10 [19] has been published before (sequences of all obtained plasmids containing the specific inserts were verified by sequencing (MWG Eurofins)). The plasmids were then transformed in E. coli BL21 (DE3) cells. For overexpression of 6× His-tagged enzymes, a 400 mL culture (containing the appropriate antibiotic; plasmid dependent) was grown to optical density of 0.6 at 600 nm at 37 °C. […] Purification progress was monitored by SDS-PAGE of the obtained fractions (not shown). Enzyme concentrations were determined using a Qubit 2.0 fluorometric quantitation system (Life Technologies, Carlsbad, CA, USA) according to the manufacturer’s instructions.
as §4, §5

[6] = system: cyclooxygenase-1; design: method as in PMID 10631313; settings: cited from earlier work
[7] = molecular target: cyclooxygenase-2; design: method as in PMID 10631313; settings: cited from earlier work
[8] = molecular target: AKR1B10; design: method as in PMID 27665999; settings: cited from earlier work

Row | IC50 [1] [µM] | Ki [1] [µM] | Ratio AKR1A1/AKR1B10 [1] | Ratio AKR1B1/AKR1B10 [1] | IC50 [2] [µM] | Ki [2] [µM] | Mode of inhibition [2] | IC50 [3] [µM] | Compound | IC50 [4] [µM] | IC50 [5] [µM] | inhibition of cyclooxygenase-1 [6] | IC50 [7] [µM] | Ki [8] [µM]
1 | 5.41 ± 0.42 | 3.27 ± 0.52 | ≥19 | >23 | 29.3 ± 1.53 | 16.8 ± 1.33 | competitive | > 125 | CCC(C)C(=O)C1=C(O)C(CC=C(C)C)=C(O)[C@](O)(CC=C(C)C)C1=O (stereo partly drawn) [Compound 1, adhumulone] |  |  |  |  | 
2 |  |  |  |  |  |  |  |  | CC(C)=CCc1c(O)cc2oc3cc(O)c(O)c(CC=C(C)C)c3c(=O)c2c1O [γ-mangostin] | 0.018 |  |  |  | 
3 | 1.35 ± 0.07 | 0.7 ± 0.09 | >74 | >93 | 29.8 ± 1.72 | 16.5 ± 1.74 | non-competitive | > 125 | CC(C)=CCC1=C(O)C(O)(CC=C(C)C)C(=O)C(C(=O)C(C)C)=C1O (stereo in doubt) [Compound 2, cohumulone] |  | > 100 |  |  | 
4 |  |  |  |  |  |  |  |  | CCCCC/C=C\C/C=C\C/C=C\C/C=C\CCCC(=O)O [arachidonic acid] |  |  |  |  | 0.26

Row | Compound | IC50 [1] [µM] | Ki [1] [µM] | Ratio AKR1A1/AKR1B10 [1] | Ratio AKR1B1/AKR1B10 [1] | IC50 [2] [µM] | Ki [2] [µM] | Mode of inhibition [2] | IC50 [3] [µM] | IC50 [4] [µM] | IC50 [5] [µM] | inhibition of cyclooxygenase-1 [6] | IC50 [7] [µM] | Ki [8] [µM]
5 | CC(C)=CCC1C(=O)C(C(=O)CC(C)C)=C(O)C(O)(CC=C(C)C)C1=O (stereo not drawn) [Compound 3, n-humulone] | 1.94 ± 0.1 | 0.98 ± 0.12 | >52 | >64 | 7.78 ± 0.43 | 3.94 ± 0.33 | non-competitive | > 125 |  | > 100 | not inhibited at concentrations below 10 µM | 1.6 | 
